Source: patent publication US20260364214A1, “MULTIVALENT FIBROBLAST ACTIVATION PROTEIN LIGANDS FOR TARGETED DELIVERY APPLICATIONS” (Philochem AG, priority 2022, published 2026)

Tests used:
SK-RC-52.hFAP tumors = experiment: Quantitative biodistribution in SK-RC-52.hFAP tumor bearing mice; assay type: in vivo, mouse (female athymic Balb/c AnNRj-Foxn1); settings: i.v. 250 nmol/kg, 50 MBq/kg
How it was run: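 Female athymic Balb/c nude mice carried subcutaneous SK-RC-52.hFAP tumors (5 million cells, ~300 mm^3). 177Lu-labeled conjugates were given i.v. at 250 nmol/kg, 50 MBq/kg. Tissues gamma-counted at several time points as %ID/g±SD, tumor values corrected for growth rate; tumor-to-organ ratios derived.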

[1] = Determination of Log D7.4 (1-octanol/PBS); assay type: physicochemical; settings: 1-octanol/PBS pH 7.4; 177Lu-labeled
Description: The lipophilicity of ^177Lu-ESV6, ^177Lu-Bi-ESV6, ^177Lu-Tri-ESV6 and ^177Lu-FAP-2286 was determined as follows. 100 μL aliquots of the radioligand (~1 MBq) in PBS buffer were added to PBS buffer (500 μL, pH 7.4) and 1-octanol (600 μL). The two-layer mixture were vigorously shaken for 10 minutes on a vortex mixer and then centrifuged at 700 rpm for 5 min to facilitate the separation. 100 μL aliquots of both layers were measured in a Packard Cobra Gamma Counter and the partition coefficient was determined by dividing cpm (octanol) by cpm (PBS) and indicated as Log D7.4. • Log D7.4 (^177Lu-ESV6): −4.13 • Log D7.4 (^177Lu-Bi-ESV6): −3.75 • Log D7.4 (^177Lu-Tri-ESV6): −3.10 • Log D7.4 (^177Lu-FAP-2286): −3.05

N#C[C@@H]1CC(F)(F)CN1C(=O)CNC(=O)c1ccnc2c(NC(=O)CCC(=O)NCCNC(=O)CCC(C(=O)O)N3CCN(CC(=O)[O-])CCN(CC(=O)[O-])CCN(CC(=O)[O-])CC3)cccc12.[177Lu+3] (stereo partly shown) [^177Lu-ESV6-DOTAGA, reference compound]
Tumor to organs ratio, Blood (SK-RC-52.hFAP tumors; 24 h): 628.54 | Injected dose per gram, Blood (SK-RC-52.hFAP tumors; 24 h post injection): 0.00 % ID/g | Tumor to organs ratio, Blood (SK-RC-52.hFAP tumors; 48 h): 2173.00 | Injected dose per gram, Blood (SK-RC-52.hFAP tumors; 48 h post injection): 0.00 % ID/g | Tumor to organs ratio, Heart (SK-RC-52.hFAP tumors; 24 h): 497.97 | Injected dose per gram, Heart (SK-RC-52.hFAP tumors; 24 h post injection): 0.01 % ID/g | Tumor to organs ratio, Heart (SK-RC-52.hFAP tumors; 48 h): 314.15 | Injected dose per gram, Heart (SK-RC-52.hFAP tumors; 48 h post injection): 0.00 % ID/g | Tumor to organs ratio, Intestine (SK-RC-52.hFAP tumors; 24 h): 240.54 | Injected dose per gram, Intestine (SK-RC-52.hFAP tumors; 24 h post injection): 0.01 % ID/g | Tumor to organs ratio, Intestine (SK-RC-52.hFAP tumors; 48 h): 232.61 | Injected dose per gram, Intestine (SK-RC-52.hFAP tumors; 48 h post injection): 0.01 % ID/g | Tumor to organs ratio, Kidney (SK-RC-52.hFAP tumors; 24 h): 5.41 | Injected dose per gram, Kidney (SK-RC-52.hFAP tumors; 24 h post injection): 0.47 % ID/g | Tumor to organs ratio, Kidney (SK-RC-52.hFAP tumors; 48 h): 4.22 | Injected dose per gram, Kidney (SK-RC-52.hFAP tumors; 48 h post injection): 0.28 % ID/g | Tumor to organs ratio, Liver (SK-RC-52.hFAP tumors; 24 h): 37.66 | Injected dose per gram, Liver (SK-RC-52.hFAP tumors; 24 h post injection): 0.07 % ID/g | Tumor to organs ratio, Liver (SK-RC-52.hFAP tumors; 48 h): 20.54 | Injected dose per gram, Liver (SK-RC-52.hFAP tumors; 48 h post injection): 0.06 % ID/g | Tumor to organs ratio, Lung (SK-RC-52.hFAP tumors; 24 h): 977.01 | Injected dose per gram, Lung (SK-RC-52.hFAP tumors; 24 h post injection): 0.01 % ID/g | Tumor to organs ratio, Lung (SK-RC-52.hFAP tumors; 48 h): 805.04 | Injected dose per gram, Lung (SK-RC-52.hFAP tumors; 48 h post injection): 0.01 % ID/g | Tumor to organs ratio, Muscle (SK-RC-52.hFAP tumors; 24 h): 159.12 | Injected dose per gram, Muscle (SK-RC-52.hFAP tumors; 24 h post injection): 0.03 % ID/g | Tumor to organs ratio, Muscle (SK-RC-52.hFAP tumors; 48 h): 142.88 | Injected dose per gram, Muscle (SK-RC-52.hFAP tumors; 48 h post injection): 0.01 % ID/g | Tumor to organs ratio, Spleen (SK-RC-52.hFAP tumors; 24 h): 158.68 | Injected dose per gram, Spleen (SK-RC-52.hFAP tumors; 24 h post injection): 0.03 % ID/g | Tumor to organs ratio, Spleen (SK-RC-52.hFAP tumors; 48 h): 503.00 | Injected dose per gram, Spleen (SK-RC-52.hFAP tumors; 48 h post injection): 0.01 % ID/g | Tumor to organs ratio, Tail (SK-RC-52.hFAP tumors; 24 h): 48.95 | Injected dose per gram, Tail (SK-RC-52.hFAP tumors; 24 h post injection): 0.05 % ID/g | Tumor to organs ratio, Tail (SK-RC-52.hFAP tumors; 48 h): 45.61 | Injected dose per gram, Tail (SK-RC-52.hFAP tumors; 48 h post injection): 0.03 % ID/g | Injected dose per gram, Tumor (SK-RC-52.hFAP tumors; 24 h post injection): 2.53 % ID/g | Injected dose per gram, Tumor (SK-RC-52.hFAP tumors; 48 h post injection): 1.19 % ID/g | Log D7.4 [1]: −4.13

N#CC1CC(F)(F)CN1C(=O)CNC(=O)c1ccnc2c(NC(=O)CCC(=O)NCCCCC(NC(=O)CCC(=O)Nc3cccc4c(C(=O)NCC(=O)N5CC(F)(F)CC5C#N)ccnc34)C(=O)NCCNC(=O)CCC(C(=O)O)N3CCN(CC(=O)[O-])CCN(CC(=O)[O-])CCN(CC(=O)[O-])CC3)cccc12.[177Lu+3] (stereo not shown) [^177Lu-Bi-ESV6-DOTAGA, reference compound]
Tumor to organs ratio, Blood (SK-RC-52.hFAP tumors; 24 h): 270.81 | Injected dose per gram, Blood (SK-RC-52.hFAP tumors; 24 h post injection): 0.05 % ID/g | Tumor to organs ratio, Blood (SK-RC-52.hFAP tumors; 48 h): 4240.99 | Injected dose per gram, Blood (SK-RC-52.hFAP tumors; 48 h post injection): 0.00 % ID/g | Tumor to organs ratio, Blood (SK-RC-52.hFAP tumors; 72 h): 2515.44 | Injected dose per gram, Blood (SK-RC-52.hFAP tumors; 72 h post injection): 0.00 % ID/g | Tumor to organs ratio, Heart (SK-RC-52.hFAP tumors; 24 h): 342.92 | Injected dose per gram, Heart (SK-RC-52.hFAP tumors; 24 h post injection): 0.05 % ID/g | Tumor to organs ratio, Heart (SK-RC-52.hFAP tumors; 48 h): 1206.24 | Injected dose per gram, Heart (SK-RC-52.hFAP tumors; 48 h post injection): 0.01 % ID/g | Tumor to organs ratio, Heart (SK-RC-52.hFAP tumors; 72 h): 203.58 | Injected dose per gram, Heart (SK-RC-52.hFAP tumors; 72 h post injection): 0.04 % ID/g | Tumor to organs ratio, Intestine (SK-RC-52.hFAP tumors; 24 h): 298.43 | Injected dose per gram, Intestine (SK-RC-52.hFAP tumors; 24 h post injection): 0.05 % ID/g | Tumor to organs ratio, Intestine (SK-RC-52.hFAP tumors; 48 h): 458.76 | Injected dose per gram, Intestine (SK-RC-52.hFAP tumors; 48 h post injection): 0.03 % ID/g | Tumor to organs ratio, Intestine (SK-RC-52.hFAP tumors; 72 h): 544.57 | Injected dose per gram, Intestine (SK-RC-52.hFAP tumors; 72 h post injection): 0.06 % ID/g | Tumor to organs ratio, Kidney (SK-RC-52.hFAP tumors; 24 h): 14.96 | Injected dose per gram, Kidney (SK-RC-52.hFAP tumors; 24 h post injection): 0.96 % ID/g | Tumor to organs ratio, Kidney (SK-RC-52.hFAP tumors; 48 h): 17.41 | Injected dose per gram, Kidney (SK-RC-52.hFAP tumors; 48 h post injection): 0.47 % ID/g | Tumor to organs ratio, Kidney (SK-RC-52.hFAP tumors; 72 h): 12.21 | Injected dose per gram, Kidney (SK-RC-52.hFAP tumors; 72 h post injection): 0.66 % ID/g | Tumor to organs ratio, Liver (SK-RC-52.hFAP tumors; 24 h): 48.81 | Injected dose per gram, Liver (SK-RC-52.hFAP tumors; 24 h post injection): 0.29 % ID/g | Tumor to organs ratio, Liver (SK-RC-52.hFAP tumors; 48 h): 51.30 | Injected dose per gram, Liver (SK-RC-52.hFAP tumors; 48 h post injection): 0.16 % ID/g | Tumor to organs ratio, Liver (SK-RC-52.hFAP tumors; 72 h): 28.14 | Injected dose per gram, Liver (SK-RC-52.hFAP tumors; 72 h post injection): 0.29 % ID/g | Tumor to organs ratio, Lung (SK-RC-52.hFAP tumors; 24 h): 184.57 | Injected dose per gram, Lung (SK-RC-52.hFAP tumors; 24 h post injection): 0.08 % ID/g | Tumor to organs ratio, Lung (SK-RC-52.hFAP tumors; 48 h): 300.13 | Injected dose per gram, Lung (SK-RC-52.hFAP tumors; 48 h post injection): 0.03 % ID/g | Tumor to organs ratio, Lung (SK-RC-52.hFAP tumors; 72 h): 517.13 | Injected dose per gram, Lung (SK-RC-52.hFAP tumors; 72 h post injection): 0.06 % ID/g | Tumor to organs ratio, Muscle (SK-RC-52.hFAP tumors; 24 h): 135.38 | Injected dose per gram, Muscle (SK-RC-52.hFAP tumors; 24 h post injection): 0.12 % ID/g | Tumor to organs ratio, Muscle (SK-RC-52.hFAP tumors; 48 h): 270.58 | Injected dose per gram, Muscle (SK-RC-52.hFAP tumors; 48 h post injection): 0.05 % ID/g | Tumor to organs ratio, Muscle (SK-RC-52.hFAP tumors; 72 h): 140.83 | Injected dose per gram, Muscle (SK-RC-52.hFAP tumors; 72 h post injection): 0.08 % ID/g | Tumor to organs ratio, Spleen (SK-RC-52.hFAP tumors; 24 h): 125.34 | Injected dose per gram, Spleen (SK-RC-52.hFAP tumors; 24 h post injection): 0.11 % ID/g | Tumor to organs ratio, Spleen (SK-RC-52.hFAP tumors; 48 h): 133.66 | Injected dose per gram, Spleen (SK-RC-52.hFAP tumors; 48 h post injection): 0.07 % ID/g | Tumor to organs ratio, Spleen (SK-RC-52.hFAP tumors; 72 h): 61.08 | Injected dose per gram, Spleen (SK-RC-52.hFAP tumors; 72 h post injection): 0.14 % ID/g | Tumor to organs ratio, Tail (SK-RC-52.hFAP tumors; 24 h): 69.69 | Injected dose per gram, Tail (SK-RC-52.hFAP tumors; 24 h post injection): 0.22 % ID/g | Tumor to organs ratio, Tail (SK-RC-52.hFAP tumors; 48 h): 187.42 | Injected dose per gram, Tail (SK-RC-52.hFAP tumors; 48 h post injection): 0.07 % ID/g | Tumor to organs ratio, Tail (SK-RC-52.hFAP tumors; 72 h): 64.13 | Injected dose per gram, Tail (SK-RC-52.hFAP tumors; 72 h post injection): 0.12 % ID/g | Injected dose per gram, Tumor (SK-RC-52.hFAP tumors; 24 h post injection): 14.29 % ID/g | Injected dose per gram, Tumor (SK-RC-52.hFAP tumors; 48 h post injection): 8.10 % ID/g | Injected dose per gram, Tumor (SK-RC-52.hFAP tumors; 72 h post injection): 8.00 % ID/g | Log D7.4 [1]: −3.75
